# From patent publication EP0002058A1, “3-(2-Aminoethylthio-6-ethyl-7-oxo-1-azabicylo-(3.2.0)-hept-2-en-2-carboxylic acid, process for preparing it and compositions comprising it” (SANRAKU-OCEAN CO., LTD., priority 1977, dated 1979)
# Where a name gives a salt, the structure may show the parent alone.
# Assays:
# [1] = tested on: Comanonas terrigena B-996; test: Bioassay of antibacterial potency (disc on agar assay plate, CCU); format: cell-based; settings: purified solid preparation
# Source text: • (1) Cells of Comanonas terrigena B-996, cultivated on a nutrient agar overnight, are suspended in a nutrient broth to give a seed culture having an absorbance at […], ascribable to the cells, of 0.04. A melted agar medium consisting of 0.8% Kyokuto powdered bouillon (Kyokuto Seiyaku Kogyo) and 1% Bacto agar (Difco Labs.) is inoculated with 1% of the seed culture. Seven ml portions of the agar medium are poured into petri dishes with a diameter of 9 cm and solidified to prepare a Comamonas assay plate. • (2) Staphylococcus aureus FDA209P is cultivated overnight with shaking in a nutrient broth. The culture is diluted to 50 times with a nutrient broth to obtain a seed culture. A melted agar medium consisting of 1% Kyokuto powdered bouillon (Kyokuto Seiyaku Kogyo) and 1% Bacto agar (Difco Labs.) is inoculated with 1% of the seed culture. Seven ml portions of the agar medium are poured into petri dishes with a diameter of 9 cm and solidified to prepare a Staphylococcus assay plate. • (3) A pulp disc with a diameter of 8 mm is soaked in a sample solution and put on the assay plate mentioned above after removing an excess of the sample solution soaked by placing on filter paper. […] The diameter of the inhibitory zone is measured. TIle concentration of the test compound in the sample solution is calculated by comparing the diameter with that of the standard solution.
# [2] = tested on: Staphylococcus aureus FDA 209P; test: Minimum inhibitory concentration, broth dilution method (brain heart infusion medium); format: cell-based; settings: for MIC: Staphylococcus aureus, FDA209P, inoculum about 1 x 10^5/ml, 35°C, 20 hours
# Protocol: (§1) The minimum inhibitory concentration was determined on various pathogenic microorganisms including a resistant strain to the N-desacetyl derivative by the broth dilution method with a brain heart infusion medium "Eiken" (Eiken Kagaku Co.). Sample solutions to be tested were prepared in a serial dilution with the medium, which were inoculated with the test microorganisms at the final cell count of about 1 x 10^5/ml and incubated at 35 °C. After 20 hours the microbial growth was examined. The minimum inhibitory concentration was determined as the lowest concentration of the sample at which no growth of the corresponding test microorganism was observed.
# [3] = tested on: Klebsiella pneumoniae K-2; test: as above; format: cell-based; settings: K2, inoculum about 1 x 10^5/ml, 35°C, 20 hours
# Protocol: as §1
# [4] = tested on: Staphylococcus aureus Russel; test: as above; format: cell-based; settings: inoculum about 1 x 10^5/ml, 35°C, 20 hours
# Protocol: as §1
# staphylococcal bacteria = test: Antimicrobial spectrum (general statement); format: cell-based
# [5] = tested on: pathogenic Gram-positive bacteria; test: Activity in vivo (general statement); settings: mice infected with pathogenic Gram-positive bacteria
# [6] = set-up: species or system male ddy mice; settings: mouse, in vivo, ip, 500 mg/kg
# [7] = tested on: Staphylococcus aureus Smith; test: Activity in vivo in mice inoculated intraperitoneally with Staphylococcus aureus Smith; set-up: species or system male ddy mice; settings: sc, 5 x 10^5 cells/mouse intraperitoneally, injected subcutaneously immediately after the inoculation, read-out: CD50 value
# Protocol: The N-desacetyl derivative was prepared on a large scale in a similar manner to the above-described and the activity in vivo was determined in mice inoculated with 5 x 10^5 cells/mouse of Staphylococcus aureus Smith intraperitoneally. The derivative was injected subcutaneously immediately after the inoculation.
# Solubility = format: physicochemical
SMILES,antibacterial potency [1],MIC [2] [µg/mL],MIC [3] [µg/mL],MIC [4] [µg/mL],other results
"CC[C@H]1C(=O)N2C(C(=O)O)=C(SCCNC(C)=O)C[C@H]12 (relative stereo) [PS-5 sodium salt, reference compound]","21,000 CCU/mg",–,–,–,–
CC[C@H]1C(=O)N2C(C(=O)OC(c3ccccc3)(c3ccccc3)c3ccccc3)=C(SCCNC(C)=O)C[C@H]12 (relative stereo) [trityl ester of antibiotic PS-5],"10,800 CCU/mg",–,–,–,–
"CO[C@@]1(NC(=O)Cc2cccs2)C(=O)N2C(C(=O)O)=C(COC(N)=O)CS[C@@H]21 [Cefoxitin, reference compound]",–,1.56,12.5,3.13,–
CCC1C(=O)N2C(C(=O)O)=C(SCCN)CC12 (stereo not drawn) [N-desacetyl derivative],–,0.008,5,0.063,"antimicrobial activity (staphylococcal bacteria): high antimicrobial activity; therapeutic effect [5]: remarkable therapeutic effect; acute toxicity [6]: No acute toxicity; ED50 [7]: 0.55 mg/kg; inhibitory activity relative to that of the antibiotic PS-5 ([2]; Staphylococcus aureus FDA 209p, times higher than antibiotic PS-5): about 10 times; Solubility in acetone, ethyl acetate and benzene (Solubility; acetone, ethyl acetate and benzene): practically insoluble; Solubility in water (Solubility; water): easily soluble"
